Source: patent US9963462B2 (priority 2015, dated 2018)

What was measured:
[1] = target: SNAP-hSPR (sepiapterin reductase, SPR) (Homo sapiens, UniProt P35270); experiment: biochemical; type: binding; settings: terbium labelled SNAP-hSPR / SSZ labelled SNAP-EGFP; read-out: hTR-FRET IC50
Excerpt: TR-FRET Assay: A TR-FRET (homogeneous, time-resolved, fluorescence resonance energy transfer) assay was used to assess activity of compounds following standard assay conditions. […] Compounds were screened at different concentrations and IC50 values calculated.
Terbium labelled SNAP-hSPR and SSZ (sulfasalazine) labelled SNAP-EGFP were used as the protein pair in this assay. Compounds were screened at different concentrations, and 1050 and Kd values calculated.

[2] = tested on: BH4 production in human peripheral blood mononuclear cells (PBMCs); experiment: hPBMC assay, inhibition of BH4 production by LC-MS (anti-CD3/anti-CD28 stimulated); type: cell-based; settings: PBMC, read-out: hPBMC IC50
[3] = tested on: neuropathic pain-like behaviors after spared nerve injury (SNI); experiment: Behavioral pharmacology model: spared nerve injury (SNI), paw withdrawal threshold, von Frey filaments; type: in vivo; settings: rat, oral gavage, mechanical endpoint, 4 hrs
Method: (§1) Behavioral Pharmacology Model: Compounds were administered by oral gavage to rats that had undergone one of two nerve injury surgeries: spared nerve injury to injure two of the three peripheral branches of the sciatic nerve or chronic constriction injury of the sciatic nerve. Paw withdrawal thresholds to mechanical stimulation using calibrated von Frey filaments were used as measurement of neuropathic pain-like behaviors.
(§2) Compounds were tested in standard behavioral pharmacology models for pain in rats as described in the literature (see, e.g., Latremoliere et al., Neuron, 86:1393-1406 (2015); Tegeder et al., Nature Medicine, 12:1269-1277 (2006)). Compounds were administered by oral gavage to rats that had undergone one of two nerve injury surgeries: spared nerve injury to injure two of the three peripheral branches of the sciatic nerve (SNI, Decosterd et al., Pain, 87:149-158 (2000)) or chronic constriction injury of the sciatic nerve (CCI, Bennett et al., Pain, 33:87-107 (1988)). Paw withdrawal thresholds to mechanical stimulation using calibrated von Frey filaments were used as measurement of neuropathic pain-like behaviors.

[4] = tested on: neuropathic pain-like behaviors after chronic constriction injury (CCI); experiment: Behavioral pharmacology model: chronic constriction injury of the sciatic nerve (CCI), paw withdrawal threshold, von Frey filaments; type: in vivo; settings: rat, oral gavage, mechanical endpoint, 4 hrs
Method: as §1, §2

[5] = tested on: BH4 levels in SK-N-BE (2) cells; experiment: SKN-N-BE (2) cellular assay, BH4 levels by LC-MS; type: cell-based; settings: Homo sapiens, SKNBE2, read-out: SK-N-BE(2) IC50, SK-N-BE (2) cells, BH4 levels by LC-MS
Method: SKN-N-BE(2) Cellular Assay: SK-N-BE (2) cells were seeded in sterile, 96-well plates and incubated for 12-24 hours at 37° C. with 5% CO2 supply. Media was removed and fresh DMEM/F-12 media (containing Glutamine & Pen/Strep but no FBS) was added. Compounds (at different concentrations) were added to different wells. The plates were then incubated for 6-48 hours at 37° C. with 5% CO2 supply. Plates were then centrifuged and the supernatant was removed. The plates were then optionally washed once with PBS. They were then sealed and stored at −80° C. or immediately used. The cells were lysed and the level of BH4 was assessed by LC-MS.
Compounds were assayed for SPR inhibitory activity using a SKN-N-BE (2) cellular assay according to the following procedure. SK-N-BE (2) cells were seeded in sterile, 96-well plates and incubated for 12-24 hours at 37° C. with 5% CO2 supply. Media was removed and fresh DMEM/F-12 media (containing Glutamine & Pen/Strep but no FBS) was added. Compounds (at different concentrations) were added to different wells. The plates were then incubated for 6-48 hours at 37° C. with 5% CO2 supply. Plates were then centrifuged and the supernatant was removed. The plates were then optionally washed once with PBS. They were then sealed and stored at −80° C. or immediately used in the next step. The cells were lysed and the levels of BH4 were assessed by LC-MS.

Chain of SNAP-hSPR (sepiapterin reductase, SPR) (P35270 whole entry): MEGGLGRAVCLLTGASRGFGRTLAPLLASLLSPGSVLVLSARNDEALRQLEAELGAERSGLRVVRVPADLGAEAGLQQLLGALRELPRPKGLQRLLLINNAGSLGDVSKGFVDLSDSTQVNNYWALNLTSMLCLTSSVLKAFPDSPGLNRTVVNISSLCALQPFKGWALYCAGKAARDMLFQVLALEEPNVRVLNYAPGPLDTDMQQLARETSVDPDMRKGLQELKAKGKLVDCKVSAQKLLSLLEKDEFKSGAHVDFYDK

SMILES | IC50 [1] | IC50 [2] | Behavior Significant effect ([3]; 15 mpk QD 3 days) | Behavior Significant effect ([4]; 9.5 mpk QD 3 days) | Behavior Significant effect ([3]; 20 mpk QD 3 days) | IC50 [5] | Behavior Significant effect ([3]; 10 mpk QD 3 days) | Behavior Significant effect ([4]; 10 mpk QD 3 days)
Cc1c(C(=O)N2CC3CC(C2)N3C2CC2)cnn1-c1nn2cccc2c(=O)[nH]1 [Q-1195] | 2 nM | 47 nM | yes |  |  |  |  | 
Cc1c(C(=O)N2CCN(C3CC(F)(F)C3)CC2)cnn1-c1nn2cccc2c(=O)[nH]1 [Q-1169] | 1 nM | 77 nM |  | yes |  |  |  | 
Cc1c(C(=O)N2CCN(C3CC(F)(F)C3)CC2)nnn1-c1nn2cccc2c(=O)[nH]1 [Q-1245] | 1 nM | 26 nM |  | yes |  |  |  | 
Cc1c(C(=O)N2CCC(c3nc(C#N)co3)CC2)cnn1-c1nn2cccc2c(=O)[nH]1 [Q-1127] | 1 nM | 15 nM |  |  | yes |  |  | 
Cc1c(C(=O)N2CCC(C(=O)N3CCCC3)(C(F)(F)F)CC2)cnn1-c1nn2cccc2c(=O)[nH]1 [Q-1046] | 1 nM | 83 nM |  |  |  | 100 nM |  | 
Cc1c(C(=O)N2CCC(C3CC3)CC2)cnn1-c1nc2c(c(=O)[nH]1)CCC2 [Q-0451] | 2 nM | 13 nM |  |  |  | 19 nM |  | 
Cc1c(C(=O)N2CCC2c2ccc(F)nc2)cnn1-c1nn2cccc2c(=O)[nH]1 (stereo not drawn) [Q-1242] | 5 nM | 32 nM |  |  |  |  | yes | 
Cc1c(C(=O)N2CC3(CCN(CC(F)(F)F)CC3)C2)cnn1-c1nn2cccc2c(=O)[nH]1 [Q-0951] | 2 nM | 45 nM |  |  |  | 400 nM |  | 
Cc1c(C(=O)N2CCC(N3CCC(F)(F)CC3)CC2)cnn1-c1nn2cccc2c(=O)[nH]1 [Q-0995] | 2 nM | 180 nM |  |  |  | 600 nM |  | 
Cc1c(C(=O)N2CCC(C(C)C#N)CC2)cnn1-c1nn2cccc2c(=O)[nH]1 (stereo not drawn) [Q-0849] | 1 nM | 44 nM |  |  |  | 300 nM |  | 
Cc1c(C(=O)N2CCC(C(O)(C(F)(F)F)C(F)(F)F)CC2)cnn1-c1nn2cccc2c(=O)[nH]1 [Q-0721] | 1 nM | 26 nM |  |  |  | 35 nM |  | 
Cc1c(C(=O)N2CC(N3CCCC(F)(F)C3)C2)cnn1-c1nn2cccc2c(=O)[nH]1 [Q-0993] | 3 nM | 160 nM |  |  |  | 1100 nM |  | 
Cc1c(C(=O)N2CCN3CC(F)(F)C[C@H]3C2)cnn1-c1nn2cccc2c(=O)[nH]1 [Q-0906] | 3 nM | 190 nM |  |  |  | 800 nM |  | 
O=C(c1cnn(-c2nn3cccc3c(=O)[nH]2)c1)N1CCN2CCC[C@@H]2C1 [Q-0703] | 4 nM | 190 nM |  |  |  | 600 nM |  | 
Cc1c(C(=O)N2C3CCC2CC(F)(F)C3)cnn1-c1nn2cccc2c(=O)[nH]1 [Q-0910] | 2 nM | 74 nM |  |  |  | 500 nM |  | 
Cc1c(C(=O)N2CCN(C3CC3)CC2)cnn1-c1nn2cccc2c(=O)[nH]1 [Q-0764] | 2 nM | 100 nM |  |  |  | 300 nM |  | 
Cc1c(C(=O)N2CCC(C(F)(F)F)CC2)cnn1-c1nc2[nH]ccc2c(=O)[nH]1 [Q-0427] | 9 nM | 1100 nM |  |  |  | 3100 nM |  | 
Cc1c(C(=O)N2CCC(C3(C(F)(F)F)CC3)CC2)cnn1-c1nn2cccc2c(=O)[nH]1 [Q-0944] | 1 nM | 36 nM |  |  |  | 28 nM |  | 
Cc1c(C(=O)N2CCN(C3CCC3(F)F)CC2)nnn1-c1nn2cccc2c(=O)[nH]1 (stereo not drawn) [Q-1204] | 1 nM | 17 nM |  |  |  |  | yes | 
Cc1c(C(=O)N2CCC(c3noc(C4CC4)n3)CC2)cnn1-c1nn2cccc2c(=O)[nH]1 [Q-0953] | 1 nM | 21 nM |  |  |  | 58 nM |  | 
Cc1c(C(=O)N2CC3(CSC3)C2)cnn1-c1nn2cccc2c(=O)[nH]1 [Q-0822] | 2 nM | 130 nM |  |  |  | 400 nM |  | 

SMILES | IC50 [1] | IC50 [2] | Behavior Significant effect ([3]; 15 mpk QD 3 days) | Behavior Significant effect ([4]; 9.5 mpk QD 3 days) | Behavior Significant effect ([3]; 20 mpk QD 3 days) | IC50 [5] | Behavior Significant effect ([3]; 10 mpk QD 3 days) | Behavior Significant effect ([4]; 10 mpk QD 3 days)
Cc1c(C(=O)N2CCN(CC(F)(F)F)CC2)nnn1-c1nn2cccc2c(=O)[nH]1 [Q-1007] | 1 nM | 120 nM |  |  |  | 500 nM |  | 
Cc1c(C(=O)N2CCC(C(F)F)CC2)cnn1-c1nn2cccc2c(=O)[nH]1 [Q-0926] | 1 nM | 45 nM |  |  |  | 200 nM |  | 
Cc1c(C(=O)N2CCN(C(C)C(F)(F)F)CC2)cnn1-c1nc2c(c(=O)[nH]1)CCC2 (stereo not drawn) [Q-1054] | 1 nM | 60 nM |  |  |  | 28 nM |  | 
Cc1c(C(=O)N2CCc3ccccc3C2)cnn1-c1nc2ccsc2c(=O)[nH]1 [Q-0354] | 2 nM | 380 nM |  |  |  | 100 nM |  | 
CCC(C#N)C1CCN(C(=O)c2cnn(-c3nc4c(c(=O)[nH]3)CCC4)c2C)CC1 (stereo not drawn) [Q-0572] | 2 nM | 24 nM |  |  |  | 36 nM |  | 
Cc1c(C(=O)N2CC=C(C3(C#N)CC3)CC2)cnn1-c1nn2cccc2c(=O)[nH]1 [Q-1034] | 2 nM | 160 nM |  |  |  | 200 nM |  | 
Cc1c(C(=O)N2CCC(C3(C#N)CC3)CC2)cnn1-c1nc2c(c(=O)[nH]1)CCC2 [Q-0948] | 1 nM | 53 nM |  |  |  | 100 nM |  | 
Cc1c(C(=O)N2CC(c3ccnc(F)c3)C2)cnn1-c1nn2cccc2c(=O)[nH]1 [Q-1133] | 2 nM | 22 nM |  |  |  |  |  | yes
Cc1c(C(=O)N2CCN(c3ccc(Cl)cn3)CC2)cnn1-c1nn2cccc2c(=O)[nH]1 [Q-0835] | 2 nM | 39 nM |  |  |  | 100 nM |  | 
Cc1c(C(=O)N2CCN(C(C)C(F)(F)F)CC2)cnn1-c1nn2cccc2c(=O)[nH]1 (stereo not drawn) [Q-0956] | 1 nM | 14 nM |  |  |  | 86 nM |  | 
Cc1c(C(=O)N2CCC3(CC2)CC3)cnn1-c1nc2c(c(=O)[nH]1)CCC2 [Q-0635] | 2 nM | 54 nM |  |  |  | 100 nM |  | 
Cc1c(C(=O)N2CCC3(CC2)CC3C(=O)N2CCCCC2)cnn1-c1nn2cccc2c(=O)[nH]1 (stereo not drawn) [Q-1057] | 1 nM | 67 nM |  |  |  | 100 nM |  | 
Cc1c(C(=O)N2CCC3(CC2)CC3C(=O)N(C)C2CC2)cnn1-c1nn2cccc2c(=O)[nH]1 (stereo not drawn) [Q-0930] | 1 nM | 58 nM |  |  |  | 300 nM |  | 
Cc1c(C(=O)N2CCC3(CC2)CC3C(=O)N2CCCCC2)cnn1-c1nc2c(c(=O)[nH]1)CCC2 (stereo not drawn) [Q-1058] | 2 nM | 150 nM |  |  |  | 93 nM |  | 
CCC1(C#N)CC12CCN(C(=O)c1cnn(-c3nn4cccc4c(=O)[nH]3)c1C)CC2 (stereo not drawn) [Q-1053] | 1 nM | 230 nM |  |  |  | 200 nM |  | 
Cc1c(C(=O)N2CCC3(CC2)CC3C(=O)N2CCCC2)cnn1-c1nc2c(c(=O)[nH]1)CCC2 (stereo not drawn) [Q-1061] | 3 nM | 210 nM |  |  |  | 400 nM |  | 
Cc1c(C(=O)N2CCc3ccccc3C2)cnn1-c1nc2cc[nH]c2c(=O)[nH]1 [Q-0378] | 30 nM | 740 nM |  |  |  | 4100 nM |  | 
Cc1c(C(=O)N2CC3(C2)CC(F)(F)C3)cnn1-c1nn2cccc2c(=O)[nH]1 [Q-0816] | 1 nM | 170 nM |  |  |  | 600 nM |  | 
Cc1c(C(=O)N2CCN(CC(F)(F)F)C(C)C2)cnn1-c1nn2cccc2c(=O)[nH]1 (stereo not drawn) [Q-0908] | 1 nM | 130 nM |  |  |  | 300 nM |  | 
Cc1c(C(=O)N2CCC(c3cccnc3F)CC2)cnn1-c1nn2cccc2c(=O)[nH]1 [Q-1003] | 1 nM | 51 nM |  |  |  | 100 nM |  | 
Cc1c(C(=O)N2CCC(OCC(F)(F)F)CC2)cnn1-c1nn2cccc2c(=O)[nH]1 [Q-0784] | 1 nM | 120 nM |  |  |  | 300 nM |  | 
